From publication PMC12396409, “Screening and hit evaluation of a microbial metabolite library against the pathogenic Plasmodium falciparum and Toxoplasma gondii parasites” (International Journal for Parasitology: Drugs and Drug …, 2025)
Read-outs that look alike come from different tables or passages of the source.

Key:
[1] = test system: P. falciparum 3D7 parasites; experiment: P. falciparum growth inhibition assay, 2-cycle (120 h treatment), delayed-death screen and dose-response; assay type: cell-based, Plasmodium falciparum; settings: for activity at 2 µg/mL: Plasmodium falciparum, 3D7
[2] = test system: P. falciparum 3D7 parasites; experiment: P. falciparum growth inhibition assay, 1-cycle (72 h treatment), SYBR DNA staining (library screen at 2 μg/mL and dose-response); assay type: cell-based, Plasmodium falciparum; settings: for activity at 2 µg/mL: Plasmodium falciparum, 3D7
[3] = test system: T. gondii RH strain (RH-Tub-eYFP) tachyzoites; experiment: microbe, parasite or virus in culture; assay type: cell-based, Toxoplasma gondii; settings: 72 h, 72 h; for percent parasite growth at 2 µg/mL: Toxoplasma gondii
[4] = library screen at 2 μg/mL, 120 h, % growth, replicate 1
[5] = library screen at 2 μg/mL, 120 h, % growth, replicate 2
[6] = library screen at 2 μg/mL, 72 h, % growth, replicate 1
[7] = library screen at 2 μg/mL, 72 h, % growth, replicate 2
[8] = library screen at 2 μg/mL, % growth, replicate 1
[9] = library screen at 2 μg/mL, % growth, replicate 2
[10] = P. falciparum, 120 h, screen at 2 μg/mL, replicate 1
[11] = P. falciparum, 120 h, screen at 2 μg/mL, replicate 2
[12] = P. falciparum, 72 h, screen at 2 μg/mL, replicate 1
[13] = P. falciparum, 72 h, screen at 2 μg/mL, replicate 2
[14] = T. gondii, screen at 2 μg/mL, replicate 1
[15] = T. gondii, screen at 2 μg/mL, replicate 2
[16] = P. falciparum 3D7, 120 h, parasite screen at 2 μg/mL, % growth, replicate 1
[17] = P. falciparum 3D7, 120 h, parasite screen at 2 μg/mL, % growth, replicate 2
[18] = P. falciparum 3D7, 72 h, parasite screen at 2 μg/mL, % growth, replicate 1
[19] = P. falciparum 3D7, 72 h, parasite screen at 2 μg/mL, % growth, replicate 2
[20] = T. gondii, parasite screen at 2 μg/mL, % growth, replicate 1
[21] = T. gondii, parasite screen at 2 μg/mL, % growth, replicate 2

Cc1cc(O)c(C=O)c2c1C(=O)Oc1c(COC(=O)/C=C/C(=O)O)c(O)c(C(=O)O)c(C)c1O2 [Fumarprotocetraric acid]
activity at 2 µg/mL ([1]; library screen at 2 μg/mL, 120 h, % growth, replicate 1, read-out: Pf_120h_%Growth_Rep1): 102% | activity at 2 µg/mL ([1]; library screen at 2 μg/mL, 120 h, % growth, replicate 2, read-out: Pf_120h_%Growth_Rep2): 100% | activity at 2 µg/mL ([2]; library screen at 2 μg/mL, 72 h, % growth, replicate 1, read-out: Pf_72h_%Growth_Rep1): 84.6% | activity at 2 µg/mL ([2]; library screen at 2 μg/mL, 72 h, % growth, replicate 2, read-out: Pf_72h_%Growth_Rep2): 90.2% | percent parasite growth at 2 µg/mL ([3]; library screen at 2 μg/mL, % growth, replicate 1, read-out: Tg_72h_%Growth_Rep1): 126% | percent parasite growth at 2 µg/mL ([3]; library screen at 2 μg/mL, % growth, replicate 2, read-out: Tg_72h_%Growth_Rep2): 103%

Eprinomectin
Pf_120h_%Growth_Rep1 [1, 4]: 33.01% | Pf_120h_%Growth_Rep2 [1, 5]: 14.57% | Pf_72h_%Growth_Rep1 [2, 6]: 61.67% | Pf_72h_%Growth_Rep2 [2, 7]: 29.66% | Tg_72h_%Growth_Rep1 [3, 8]: 130.43% | Tg_72h_%Growth_Rep2 [3, 9]: 107.67%

CCCCCCCCCC[C@@H](O)C[C@]1(O)O[C@H](CC(O)C(O)C(O)C(O)C(O)CC(O)CC(O)CC(O)CC(O)C(C)C(O)C(C)C(O)CC(O)C(C)C(O)C(O)C[C@H](C)C[C@H](C)/C=C(C)/C(O)=C2\C(=O)CN(C)C2=O)[C@@H](O)[C@H](O)[C@@H]1O (stereo partly drawn) [Blasticidin A]
Pf_120h_%Growth_Rep1 [1, 10]: 135.50% | Pf_120h_%Growth_Rep2 [1, 11]: 87.28% | Pf_72h_%Growth_Rep1 [2, 12]: 84.79% | Pf_72h_%Growth_Rep2 [2, 13]: 87.65% | Tg_72h_%Growth_Rep1 [3, 14]: 83.39% | Tg_72h_%Growth_Rep2 [3, 15]: 93.60%

C=C1[C@@H](C)[C@H]2[C@H](Cc3ccccc3)NC(=O)[C@]23[C@H](OC(C)=O)/C=C/[C@](C)(O)C[C@@H](C)C/C=C/[C@H]3[C@@H]1O [Cytochalasin H]
Pf_120h_%Growth_Rep1 [1, 10]: 1.94% | Pf_120h_%Growth_Rep2 [1, 11]: -0.33% | Pf_72h_%Growth_Rep1 [2, 12]: 6.96% | Pf_72h_%Growth_Rep2 [2, 13]: 6.37% | Tg_72h_%Growth_Rep1 [3, 14]: 1.51% | Tg_72h_%Growth_Rep2 [3, 15]: 2.70%

CC[C@H]1C[C@@H]2CC[C@@H](O2)[C@@H](C)C(=O)O[C@H](C)C[C@H]2CC[C@H](O2)[C@H](C)C(=O)O[C@@H](C)C[C@@H]2CC[C@@H](O2)[C@@H](C)C(=O)O[C@H](C)C[C@H]2CC[C@H](O2)[C@H](C)C(=O)O1 [BIA-M1055]
Pf_120h_%Growth_Rep1 [1, 16]: 15.60% | Pf_120h_%Growth_Rep2 [1, 17]: 21.38% | Pf_72h_%Growth_Rep1 [2, 18]: 7.23% | Pf_72h_%Growth_Rep2 [2, 19]: 6.66% | Tg_72h_%Growth_Rep1 [3, 20]: 3.56% | Tg_72h_%Growth_Rep2 [3, 21]: 1.37%

CC1=C\[C@@H](O)CC(=O)Cc2nc(co2)C(=O)N2CCC=C2C(=O)O[C@H](C(C)C)[C@H](C)/C=C/C(=O)NC\C=C\1 [BIA-O1131]
Pf_120h_%Growth_Rep1 [1, 16]: 16.87% | Pf_120h_%Growth_Rep2 [1, 17]: 26.94% | Pf_72h_%Growth_Rep1 [2, 18]: 59.89% | Pf_72h_%Growth_Rep2 [2, 19]: 79.42% | Tg_72h_%Growth_Rep1 [3, 20]: 125.71% | Tg_72h_%Growth_Rep2 [3, 21]: 88.67%

CC1(C)CCC[C@]2(C)[C@@H](CO)C(CO)=CC[C@@H]12 [Drimendiol]
Pf_120h_%Growth_Rep1 [1, 4]: 96.59% | Pf_120h_%Growth_Rep2 [1, 5]: 92.13% | Pf_72h_%Growth_Rep1 [2, 6]: 88.42% | Pf_72h_%Growth_Rep2 [2, 7]: 85.66% | Tg_72h_%Growth_Rep1 [3, 8]: 182.34% | Tg_72h_%Growth_Rep2 [3, 9]: 100.93%

COCCC[C@H]1O[C@@](O)([C@H](C)C2CC(OC)C(O)/C=C(C)/C=C(C)/C=C(/C)C(O[C@H]3O[C@H](C)[C@@H](OC)[C@H](O)[C@H]3O)C(C)/C=C(CO)/C=C(OC)\C=C(/C)C(=O)O2)[C@H](OC)[C@@H](O)[C@]1(C)O[C@H]1C[C@H](O)[C@H](O[C@H]2C[C@@](C)(O)[C@H](O)[C@@H](C)O2)[C@@H](C)O1 (stereo partly drawn) [Amycolatopsin A]
Pf_120h_%Growth_Rep1 [1, 4]: 67.28% | Pf_120h_%Growth_Rep2 [1, 5]: 94.98% | Pf_72h_%Growth_Rep1 [2, 6]: 76.67% | Pf_72h_%Growth_Rep2 [2, 7]: 110.14% | Tg_72h_%Growth_Rep1 [3, 8]: 96.54% | Tg_72h_%Growth_Rep2 [3, 9]: 72.55%

COc1c(O)c(C)c(C)c(O)c1OC [BIA-H1651]
Pf_120h_%Growth_Rep1 ([1]; P. falciparum 3D7, 120 h, library screen at 2 μg/mL, % growth, replicate 1): 17.29% | Pf_120h_%Growth_Rep2 ([1]; P. falciparum 3D7, 120 h, library screen at 2 μg/mL, % growth, replicate 2): 12.27% | Pf_72h_%Growth_Rep1 ([2]; P. falciparum 3D7, 72 h, library screen at 2 μg/mL, % growth, replicate 1): 6.09% | Pf_72h_%Growth_Rep2 ([2]; P. falciparum 3D7, 72 h, library screen at 2 μg/mL, % growth, replicate 2): 2.27% | Tg_72h_%Growth_Rep1 ([3]; T. gondii RH, library screen at 2 μg/mL, % growth, replicate 1): 138.57% | Tg_72h_%Growth_Rep2 ([3]; T. gondii RH, library screen at 2 μg/mL, % growth, replicate 2): 100.12%
